Tests used:
[1] = Solubility in water; type: physicochemical
[2] = test system: pCREB; test: Jacob-induced CREB shutoff in hippocampal primary neurons expressing phosphodeficient Jacob; type: cell-based, rat; settings: 2 μM OA, 20 min, neurons expressing phosphodeficient Jacob in the nucleus
Method: Hippocampal neuronal cultures were transfected with plasmid DNA using Lipofectamine2000 (Thermo Fisher Scientific) following the manufacturer's instructions. For LMO4 knockdown cells were expressing shRNA for 5 days; for Jacob knockdown 4 days. […]. The target sequences for LMO4 and NLS-Jacob knockdown (Spilker et al., 2016) as well as scrambled controls are indicated in key resources table. For Aβ-induced CREB shutoff experiments Aβ oligomers (Anaspec) were prepared as described previously (see previous section, (Grochowska et al., 2017)). Transfected neurons were treated with 500 nM Aβ1-42 or Aβ3 (pE)-42. Nitarsone was diluted in distilled water.

[3] = test system: GluR1; type: cell-based, rat
[4] = test system: HEK293T cells; test: Heterologous co-immunoprecipitation from HEK293T cells; type: cell-based; settings: 20 nM staurosporine, 3 h
[5] = biological target: T1, GST-LMO4 (Homo sapiens, UniProt P61968); test: Isothermal titration calorimetry (ITC); settings: binding to LMO4, 25 mM Tris buffer pH 7.4, 50 mM NaCl
T1 construct: made in house; host or cells: E. coli BL21 (DE3)
T1 sequence (P61968 1-165): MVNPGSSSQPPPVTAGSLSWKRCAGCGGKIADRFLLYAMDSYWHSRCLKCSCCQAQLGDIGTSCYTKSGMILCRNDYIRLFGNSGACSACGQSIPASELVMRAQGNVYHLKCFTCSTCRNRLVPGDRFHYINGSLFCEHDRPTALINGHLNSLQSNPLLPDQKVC

Molecule: CC(NCCO)c1ccc([N+](=O)[O-])cc1 (stereo not shown) [NPEAE, 2-{[1-(4-nitrophenyl)ethyl]amino}ethan-1-ol]
- solubility in water [1]: soluble in water

Molecule: C=C1[C@@H](O)[C@@H]2O[C@]3(CC[C@H](/C=C/[C@@H](C)[C@@H]4CC(C)=C[C@@]5(O[C@H](C[C@@](C)(O)C(=O)O)CC[C@H]5O)O4)O3)CC[C@H]2O[C@@H]1[C@@H](O)C[C@H](C)[C@H]1O[C@@]2(CCCCO2)CC[C@H]1C [OA, okadaic acid]
- Jacob-induced CREB shutoff [2]: prevented Jacob-induced CREB shutoff

Molecule: NC1=N[C@H](O)[C@H]2[C@H]3O[C@]4(O)O[C@@H]([C@@H](O)[C@@]2(N1)[C@@H]4O)[C@]3(O)CO [TTX, tetrodotoxin]
- GluR1 surface expression [3]: induced upregulation of GluR1 surface expression

Molecule: CN[C@@H]1C[C@H]2O[C@@](C)([C@@H]1OC)n1c3ccccc3c3c4c(c5c6ccccc6n2c5c31)C(=O)NC4 [staurosporine]
- Jacob phosphorylation level (S180) [4]: decreases Jacob phosphorylation level (S180)
- association of Jacob with CREB [4]: decreases the association of Jacob with CREB
- association of Jacob with LMO4-tagRFP [4]: increases its association with LMO4-tagRFP

B1: Jacob: synapto-nuclear protein messenger; recombinant protein titrated against LMO4 in ITC (protein, listed as Homo sapiens)
chain: MGAAASRRRALRSEAMSSVAAKVRAARAFGEYLSQSHPENRNGADHLLADAYSGHDGSPEMQPAPQNKRRLSLVSNGCYEGSLSEEPSIRKPAGEGPQPRVYTISGEPALLPSPEAEAIELAVVKGRRQRHPHHHSQPLRASPGGSREDVSRPCQSWAGSRQGSKECPGCAQLAPGPTPRAFGLDQPPLPETSGRRKKLERMYSVDRVSDDIPIRTWFPKENLFSFQTATTTMQAISVFRGYAERKRRKRENDSASVIQRNFRKHLRMVGSRRVKAQTFAERRERSFSRSWSDPTPMKADTSHDSRDSSDLQSSHCTLDEAFEDLDWDTEKGLEAVACDTEGFVPPKVMLISSKVPKAEYIPTIIRRDDPSIIPILYDHEHATFEDILEEIERKLNVYHKGAKIWKMLIFCQGGPGHLYLLKNKVATFAKVEKEEDMIHFWKRLSRLMSKVNPEPNVIHIMGCYILGNPNGEKLFQNLRTLMTPYRVTFESPLELSAQGKQMIETYFDFRLYRLWKSRQHSKLLDFDDVL
- Kd [5]: 370 nM

From patent US20250295627A1 (Leibniz-Institut Fuer Neurobiologie, priority 2022, published 2025)
